According to patent US9125922B2, “Phosphate esters of gyrase and topoisomerase inhibitors” (priority 2011, dated 2015):
pKi: −log10 of the molar value. Read-outs that look alike come from different tables or passages of the source.

Experiments:
S. aureus DNA gyrase = S. aureus DNA gyrase (Staphylococcus aureus, UniProt P0A0K8); test: DNA Gyrase ATPase Assay; type: biochemical; settings: coupled ATPase assay, 30° C., 90 nM enzyme, 0.9 mM ATP; read-out: Ki, Inhibition of S. aureus DNA Gyrase
Procedure: The ATP hydrolysis activity of S. aureus DNA gyrase was measured by coupling the production of ADP through pyruvate kinase/lactate dehydrogenase to the oxidation of NADH. This method has been described previously (Tamura and Gellert, 1990, J. Biol. Chem., 265, 21342).
ATPase assays were carried out at 30° C. in buffered solutions containing 100 mM TRIS pH 7.6, 1.5 mM MgCl2, 150 mM KCl. The coupling system contains final concentrations of 2.5 mM phosphoenol pyruvate, 200 μM nicotinamide adenine dinucleotide (NADH), 1 mM DTT, 30 ug/ml pyruvate kinase, and 10 ug/ml lactate dehydrogenase. The enzyme (90 nM final concentration) and a DMSO solution (3% final concentration) of the selected compound were added. The reaction mixture was allowed to incubate for 10 minutes at 30° C. The reaction was initiated by the addition of ATP to a final concentration of 0.9 mM, and the rate of NADH disappearance was monitored at 340 nanometers over the course of 10 minutes. The Ki values were determined from rate versus concentration profiles.

S. aureus TopoIV enzyme = S. aureus TopoIV enzyme (Staphylococcus aureus, UniProt P0C1S7); test: DNA Topo IV ATPase Assay; type: biochemical
S. aureus TopoIV enzyme, sequence (P0C1S7 whole entry): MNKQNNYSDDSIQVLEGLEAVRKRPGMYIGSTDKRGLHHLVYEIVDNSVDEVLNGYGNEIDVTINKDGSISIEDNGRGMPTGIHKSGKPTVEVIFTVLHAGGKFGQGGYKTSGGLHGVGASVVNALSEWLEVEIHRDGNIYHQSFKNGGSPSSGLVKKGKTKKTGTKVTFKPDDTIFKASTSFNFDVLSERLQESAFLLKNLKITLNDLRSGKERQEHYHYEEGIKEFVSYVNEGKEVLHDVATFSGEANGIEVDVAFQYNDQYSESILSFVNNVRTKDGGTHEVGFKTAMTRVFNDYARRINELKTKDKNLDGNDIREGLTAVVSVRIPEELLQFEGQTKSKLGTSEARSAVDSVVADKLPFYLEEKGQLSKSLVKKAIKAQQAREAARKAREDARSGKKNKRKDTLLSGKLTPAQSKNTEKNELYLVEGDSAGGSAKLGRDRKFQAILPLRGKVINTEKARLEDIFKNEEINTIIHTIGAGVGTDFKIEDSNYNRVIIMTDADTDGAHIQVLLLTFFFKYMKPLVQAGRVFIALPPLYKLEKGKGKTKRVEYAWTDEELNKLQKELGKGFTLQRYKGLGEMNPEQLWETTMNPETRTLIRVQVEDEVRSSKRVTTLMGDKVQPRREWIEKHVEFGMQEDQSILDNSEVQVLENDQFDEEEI
S. aureus TopoIV enzyme, sequence (P0C1U9 whole entry partner): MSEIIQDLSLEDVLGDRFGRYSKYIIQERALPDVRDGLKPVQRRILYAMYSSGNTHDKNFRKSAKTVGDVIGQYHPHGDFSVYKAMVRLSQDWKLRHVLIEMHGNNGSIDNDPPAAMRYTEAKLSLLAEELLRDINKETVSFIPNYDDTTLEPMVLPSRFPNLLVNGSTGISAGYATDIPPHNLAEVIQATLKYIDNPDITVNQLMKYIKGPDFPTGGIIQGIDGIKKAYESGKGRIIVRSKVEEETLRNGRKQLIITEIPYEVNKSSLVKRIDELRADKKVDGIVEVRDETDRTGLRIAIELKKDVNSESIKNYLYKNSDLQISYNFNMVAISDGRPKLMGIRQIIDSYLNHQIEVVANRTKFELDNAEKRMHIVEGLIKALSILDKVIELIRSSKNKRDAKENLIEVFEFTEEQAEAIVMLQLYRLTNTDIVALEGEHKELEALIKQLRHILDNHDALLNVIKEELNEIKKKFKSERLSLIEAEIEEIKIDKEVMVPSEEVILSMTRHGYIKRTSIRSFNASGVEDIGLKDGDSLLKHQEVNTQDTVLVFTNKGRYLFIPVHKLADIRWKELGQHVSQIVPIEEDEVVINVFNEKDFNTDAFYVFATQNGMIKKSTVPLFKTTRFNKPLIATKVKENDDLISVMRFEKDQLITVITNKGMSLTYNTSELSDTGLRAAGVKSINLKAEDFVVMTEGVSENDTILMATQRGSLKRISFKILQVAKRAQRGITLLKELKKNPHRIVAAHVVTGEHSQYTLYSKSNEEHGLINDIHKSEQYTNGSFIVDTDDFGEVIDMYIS
Procedure: The conversion of ATP to ADP by S. aureus TopoIV enzyme was coupled to the conversion of NADH to NAD+, and the progress of the reaction was measured by the change in absorbance at 340 nm. TopoIV (64 nM) was incubated with the selected compound (3% DMSO final) in buffer for 10 minutes at 30° C. The buffer consisted of 100 mM Tris 7.5, 1.5 mM MgCl2, 200 mM K·Glutamate, 2.5 mM phosphoenol pyruvate, 0.2 mM NADH, 1 mM DTT, 5 μg/mL linearized DNA, 50 μg/mL BSA, 30 μg/mL pyruvate kinase, and 10 μg/mL lactate dehyrodgenase (LDH). The reaction was initiated with ATP, and rates were monitored continuously for 20 minutes at 30° C. on a Molecular Devices SpectraMAX plate reader. The inhibition constant, Ki, was determined from plots of rate vs. concentration of selected compound fit to the Morrison Equation for tight binding inhibitors.

Aqueous Solubility Study = type: physicochemical; settings: aqueous buffer, thermodynamic from solid; water, pH adjusted with 1.0N HCl, stirred 96 hours at room temperature, filtered, HPLC; filtrate pH per compound (23: >3.0; X: 4.41; Y: 3.01; Z: 4.35)
Procedure: The aqueous solubilities of compounds 23, X, Y, and Z were determined according to the following procedure.
Aqueous samples of each compound were prepared as follows. Compounds were weighed (20-30 mg compound) in 4 ml clear vials prior to adding water (0.5 mL) and stirring by magnetic stirrer. 1.0N HCl was added to the suspension to adjust the pH to the desired range. After stirring for 96 hours at room temperature, the suspension was filtered through a 0.22 micron filter (Millipore, Ultrafree centrifugal filters, Durapore PVDF 0.22 μm, Cat# UFC30GVNB). The filtrate was collected and the pH measured with a pH meter. The filtrates containing compounds X and Z were diluted 100-fold and 400-fold, respectively, to provide an appropriate concentration for HPLC analysis.
Standard solutions of each compound were prepared according to the following procedure. 1 to 2 mg of each compound was accurately weighed into a 10 mL volumetric flask and either water (for compounds X and Z), methanol (for compound Y), or 1:1 methanol:0.1N HCl (for compound 23) was added to completely dissolve the compounds. Sonication was performed for compound 23 to assist with the dissolution in 1:1 methanol:0.1N HCl. When all solids dissolved, additional solvent was added to adjust the volume of each solution to 10 ml. The resulting solutions were thoroughly mixed to give the standard solutions of each compound. Each standard solution was then diluted with solvent by 2-fold, 10-fold, and 100-fold.
Aliquots of each sample and each standard solution were analyzed by HPLC analysis (Agilent 1100, injection volume 10 μL, wavelength 271 nm, column XTerra® Phenyl 5 μm, 4.6×50 mm, Part No. 186001144, mobile phase: A: 0.1% TFA in water 0.1% TFA in AcN). Each standard solution was injected three times, and each of the samples was injected twice. Standard curves were obtained by plotting the average of the peak area from the HPLC versus the concentrations of the standard solutions (with appropriate corrections of the weights of the standards based on total water content of the solid as determined by elemental analysis). The concentration of each sample was calculated from the peak area of the aqueous sample from the HPLC results and the slope and intercept of the standard curves. The solubility values listed in Table 3 below were derived from the product of the concentration of the sample and the dilution factor of the sample.

[1] = coupled ATPase assay, 30° C., 64 nM TopoIV, Morrison Equation fit, read-out: Ki, Inhibition of S. aureus DNA Topo IV

S. aureus DNA gyrase, sequence (P0A0K8 whole entry): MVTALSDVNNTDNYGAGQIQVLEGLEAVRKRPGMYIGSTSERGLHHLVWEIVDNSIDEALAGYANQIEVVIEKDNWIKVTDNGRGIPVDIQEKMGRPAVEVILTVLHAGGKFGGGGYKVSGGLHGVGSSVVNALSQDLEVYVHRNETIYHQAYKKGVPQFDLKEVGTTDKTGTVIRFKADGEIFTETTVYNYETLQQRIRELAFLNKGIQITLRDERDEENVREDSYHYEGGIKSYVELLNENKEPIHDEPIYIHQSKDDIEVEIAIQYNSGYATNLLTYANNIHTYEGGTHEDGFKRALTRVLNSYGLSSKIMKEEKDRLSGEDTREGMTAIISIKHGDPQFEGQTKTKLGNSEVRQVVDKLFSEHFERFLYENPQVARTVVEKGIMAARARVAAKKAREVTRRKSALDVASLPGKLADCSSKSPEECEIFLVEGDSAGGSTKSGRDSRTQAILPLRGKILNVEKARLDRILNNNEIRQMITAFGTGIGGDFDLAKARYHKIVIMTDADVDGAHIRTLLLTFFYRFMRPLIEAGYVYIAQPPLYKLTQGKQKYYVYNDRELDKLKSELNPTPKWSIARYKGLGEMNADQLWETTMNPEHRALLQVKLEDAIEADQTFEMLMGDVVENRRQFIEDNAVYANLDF
S. aureus DNA gyrase, sequence (P20831 whole entry partner): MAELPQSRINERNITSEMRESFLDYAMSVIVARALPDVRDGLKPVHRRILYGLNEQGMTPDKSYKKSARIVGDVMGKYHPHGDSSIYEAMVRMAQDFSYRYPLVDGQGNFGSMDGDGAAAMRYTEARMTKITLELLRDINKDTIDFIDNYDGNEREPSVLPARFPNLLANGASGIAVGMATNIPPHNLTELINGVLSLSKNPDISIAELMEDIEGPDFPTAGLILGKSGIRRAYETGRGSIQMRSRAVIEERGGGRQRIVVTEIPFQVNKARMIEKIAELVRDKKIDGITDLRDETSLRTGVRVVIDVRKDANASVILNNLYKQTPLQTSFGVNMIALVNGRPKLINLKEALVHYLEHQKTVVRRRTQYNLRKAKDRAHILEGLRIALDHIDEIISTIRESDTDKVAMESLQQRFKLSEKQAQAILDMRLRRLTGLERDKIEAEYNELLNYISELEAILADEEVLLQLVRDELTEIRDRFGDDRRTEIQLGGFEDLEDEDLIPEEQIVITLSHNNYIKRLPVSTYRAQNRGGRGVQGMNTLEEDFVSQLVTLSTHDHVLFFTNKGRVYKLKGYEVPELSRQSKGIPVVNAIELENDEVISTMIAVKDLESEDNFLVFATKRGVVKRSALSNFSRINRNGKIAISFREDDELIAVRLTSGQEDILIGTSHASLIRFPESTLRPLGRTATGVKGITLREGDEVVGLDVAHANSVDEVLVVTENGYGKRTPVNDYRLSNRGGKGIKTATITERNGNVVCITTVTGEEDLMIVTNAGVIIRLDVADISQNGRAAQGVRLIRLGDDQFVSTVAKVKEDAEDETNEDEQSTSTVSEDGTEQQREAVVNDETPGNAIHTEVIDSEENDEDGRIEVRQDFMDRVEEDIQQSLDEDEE

SMILES	pKi (S. aureus DNA gyrase)	pKi (S. aureus TopoIV enzyme; [1])	solubility at 96 h (Aqueous Solubility Study) [mg/mL]	pKi (S. aureus TopoIV enzyme)
CCNC(=O)Nc1nc2cc(-c3cnc(C(C)(C)OP(=O)(O)OCCN4CCOCC4)nc3)c(F)c([C@H]3CCCO3)c2[nH]1 [Compound Z, 2-(5-(2-(3-ethylureido)-6-fluoro-7-((R)-tetrahydrofuran-2-yl)-1H-benzo[d]imidazol-5-yl)pyrimidin-2-yl)propan-2-yl 2-morpholinoethyl hydrogen phosphate]	> 8.05	7.10	> 41	
CCNC(=O)Nc1nc2cc(-c3cnc(C(C)(C)OP(=O)(O)OCCOCCOC)nc3)c(F)c([C@H]3CCCO3)c2[nH]1 [Compound X, ammonium (R)-2-(5-(2-(3-ethylureido)-6-fluoro-7-(tetrahydrofuran-2-yl)-1H-benzo[d]imidazol-5-yl)pyrimidin-2-yl)propan-2-yl 2-(2-methoxyethoxy)ethyl phosphate]	> 8.05	7.35	12.7	
CCCCCCCCCCCCCCCCOP(=O)(O)OC(C)(C)c1ncc(-c2cc3nc(NC(=O)NCC)[nH]c3c([C@H]3CCCO3)c2F)cn1 [Compound Y, ammonium (R)-2-(5-(2-(3-ethylureido)-6-fluoro-7-(tetrahydrofuran-2-yl)-1H-benzo[d]imidazol-5-yl)pyrimidin-2-yl)propan-2-yl hexadecyl phosphate]	7.89	7.62	< 0.001	
CCNC(=O)Nc1nc2cc(-c3cnc(C(C)(C)O)nc3)c(F)c([C@H]3CCCO3)c2[nH]1 [Compound 23, (R)-1-ethyl-3-(6-fluoro-5-(2-(2-hydroxypropan-2-yl)pyrimidin-5-yl)-7-(tetrahydrofuran-2-yl)-1H-benzo[d]imidazol-2-yl)urea]			< 0.001	8.05
